Measurements taken from US20090136517A1, “COMBINED TREATMENT WITH AN EGFR KINASE INHIBITOR AND AN INHIBITOR OF C-KIT” (priority 2007, published 2009).

Assays:
[1] = tested on: MO7e human leukemia cells; conditions: cited from earlier work
[2] = tested on: H2122 NSCLC tumor xenografts; assay: Growth of H2122 NSCLC tumor xenografts in mice; type: in vivo, female nu/nu CD-1 mice; conditions: H2122 xenograft, 14th dosing day, single agent 100 mg/kg oral
Procedure: (refrigeration) until dosing. […] Resulting drug was kept at 5° C. (refrigeration) until dosing.

GEO tumor xenografts = assay: Treatment beyond progression, GEO model; type: in vivo, female nu/nu CD-1 mice; conditions: GEO xenografts progressing after 15 days of erlotinib; from time of re-sort; n=8 per group
Excerpt: (§1) To run the preclinical treatment beyond progression study GEO cells were harvested from cell culture flasks during exponential cell growth, washed twice with sterile PBS, counted and resuspended in PBS to a suitable concentration before s.c. implantation on the right flank of female nu/nu CD-1 mice. Tumors were established to 200±50 mm^3 in size before randomization into vehicle control or erlotinib treatment groups. […] Each animal was maintained on its designated dosing regimen until its tumor volume from the time of re-sort had doubled.

[3] = tested on: NCI-H292 tumor xenografts; assay: Treatment beyond progression model, NCI-H292 tumor xenografts; type: in vivo, female nu/nu CD-1 mice; conditions: H292 xenografts progressing after 32 days of erlotinib; from time of re-sort; n=8 per group
Excerpt: Many patients with NSCLC who initially respond to erlotinib therapy develop progressive disease within a year of treatment. […] The mechanism for this phenomenon is not currently known. To evaluate this a preclinical model of progressive disease was utilized. This model utilizes the NCI-H292 tumor xenografts which initially respond very well to erlotinib treatment.
as §1, with “studies NCI-H292” for “study GEO”

SMILES	GM-CSF stimulated growth of MO7e cells ([1]; GM-CSF stimulated)	apoptosis of MO7e cells ([1]; Kit ligand-stimulated conditions)	Kit ligand-stimulated growth of MO7e cells ([1]; Kit ligand-stimulated)	tumor volume as percent of the initial tumor volume [2]	time to tumor doubling (GEO tumor xenografts)	time to tumor doubling [3]
Cc1ccc(NC(=O)c2ccc(CN3CCN(C)CC3)cc2)cc1Nc1nccc(-c2cccnc2)n1 [Gleevec]	not affected	induces apoptosis	inhibited			
O=C(Nc1ccc(OC(F)(F)F)cc1)c1sccc1NCc1ccnc2ccccc12 [OSI-930, 3-[(Quinolin-4-ylmethyl)amino]-N-[4-(trifluoromethoxy)phenyl]thiophene-2-carboxamide]				~120%	23.5 days	30 days
C#Cc1cccc(Nc2ncnc3cc(OCCOC)c(OCCOC)cc23)c1 [erlotinib, [6,7-bis(2-methoxyethoxy)-4-quinazolin-4-yl]-(3-ethynylphenyl) amine]				approximately 250%	16.7 days	19.6 days
